Measurements taken from patent publication US10335399B2, “Chromane, isochromane and dihydroisobenzofuran derivatives as mGluR2—negative allosteric modulators, compositions, and their use” (Merck Sharp & Dohme Corp., priority 2016, dated 2019).

Target: recombinant human mGluR2 (Homo sapiens (Human), UniProt Q14416)
Assay: FLIPR Ca2+ mobilization assay: inhibition of glutamate-dependent mGluR2 activity
Assay type: cell-based
Conditions: CHO dhfr- cells stably expressing recombinant human mGluR2 and Gα16, Fluo-4 AM, FLIPR384; inhibition of response to 2,500 nM glutamate
Description: Inhibition constants (IC50s; the concentration of compound required to provide 50% of maximal activity) are determined as follows. The compounds of the invention were tested in a fluorescence laser imaging plate reader based assay. This assay is a common functional assay to monitor Ca^2+ mobilization in whole cells expressing recombinant receptor coupled with a promiscuous G-protein. CHO (Chinese hamster ovary) dhfr− cells stably expressing recombinant human mGluR2 and Gα16 loaded with Fluo-4 AM (Invitrogen, Carlsbad Calif., USA) were treated with various concentrations of each of the tested compounds of the invention and the Ca^2+ response was monitored on a FLIPR384 instrument (Molecular Devices, Sunnydale Calif., USA). […] The maximum calcium response at each concentration of compound for agonist or antagonist were plotted as dose responses and the curves were fitted with a four parameter logistic equation giving IC50 and Hill coefficient using the iterative non-linear curve fitting software ADA (Merck & Co., Inc.). Data in the following table lists the activity of each compound to inhibit glutamate-dependent mGluR2 activity in this cellular assay.

Chain of recombinant human mGluR2 (Q14416 19-872): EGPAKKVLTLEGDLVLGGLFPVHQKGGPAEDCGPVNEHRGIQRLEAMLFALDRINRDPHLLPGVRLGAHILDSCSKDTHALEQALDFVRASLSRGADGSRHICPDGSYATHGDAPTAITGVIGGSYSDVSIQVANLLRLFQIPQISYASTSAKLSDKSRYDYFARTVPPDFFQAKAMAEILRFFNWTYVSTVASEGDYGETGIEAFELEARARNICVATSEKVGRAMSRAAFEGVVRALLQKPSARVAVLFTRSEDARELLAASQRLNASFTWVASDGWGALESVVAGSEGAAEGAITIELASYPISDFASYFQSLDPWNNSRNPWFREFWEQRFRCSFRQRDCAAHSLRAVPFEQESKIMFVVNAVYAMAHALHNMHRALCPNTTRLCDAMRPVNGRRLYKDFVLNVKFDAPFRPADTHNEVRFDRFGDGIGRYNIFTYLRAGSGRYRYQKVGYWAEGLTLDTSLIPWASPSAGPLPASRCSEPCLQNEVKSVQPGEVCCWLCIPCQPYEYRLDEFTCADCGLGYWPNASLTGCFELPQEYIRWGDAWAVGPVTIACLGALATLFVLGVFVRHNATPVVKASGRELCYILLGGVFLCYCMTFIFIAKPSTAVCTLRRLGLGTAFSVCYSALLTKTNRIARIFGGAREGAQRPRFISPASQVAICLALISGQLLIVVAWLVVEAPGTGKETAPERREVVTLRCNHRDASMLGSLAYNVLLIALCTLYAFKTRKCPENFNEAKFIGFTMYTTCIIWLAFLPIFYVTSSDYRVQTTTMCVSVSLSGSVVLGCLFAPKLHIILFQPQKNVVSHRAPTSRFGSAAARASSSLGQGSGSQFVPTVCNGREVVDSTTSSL

Row | IC50 [nM] | Compound
1 | 12 | NC(=O)c1cc(-c2ccc(F)cc2F)c2c(n1)O[C@H](CC(F)(F)F)CC2 (single isomer, unassigned) [Example 3-8A]
2 | 20 | NC(=O)c1cc(-c2ccc(F)cc2F)c2c(n1)O[C@@H](C1CC1)CC2 [Example 2-3A, (R)-2-cyclopropyl-5-(2,4-difluorophenyl)-3,4-dihydro-2H-pyrano[2,3-b]pyridine-7-carboxamide]
3 | 10 | NC(=O)c1cc(-c2ccc(F)cc2F)c2c(n1)O[C@@H](CF)CC2 (single isomer, unassigned) [Example 3-6B]
4 | 7 | NC(=O)c1cc(-c2ccc(F)cc2F)c2c(n1)O[C@@H](COC(F)F)CC2 [Example 3-1A, (R)-2-((difluoromethoxy)methyl)-5-(2,4-difluorophenyl)-3,4-dihydro-2H-pyrano[2,3-b]pyridine-7-carboxamide]
5 | 536 | Cc1ncc(-c2cc(C(N)=O)nc3c2CCC(COC(F)F)O3)s1 (single isomer, unassigned) [Example 3-3A, (S)- or (R)-2-((difluoro-methoxy)methyl)-5-(2-methylthiazol-5-yl)-3,4-dihydro-2H-pyrano[2,3-b]pyridine-7-carboxamide]
6 | 27 | COC[C@H]1CCc2c(-c3ccc(F)cc3F)cc(C(N)=O)nc2O1 (single isomer, unassigned) [Example 3-5B]
7 | 9 | C[C@H]1Cc2c(-c3ccc(F)cc3F)cc(C(N)=O)nc2O[C@H]1COC(F)F (single isomer, unassigned) [Example 3-9D]
8 | 69 | CC(C)[C@H]1CCc2c(-c3ccc(F)cc3F)cc(C(N)=O)nc2O1 (single isomer, unassigned) [Example 2-4B]
9 | 15 | C[C@H]1Cc2c(-c3ccc(F)cc3F)cc(C(N)=O)nc2O[C@@H]1CO [Example 2-2B, (2S,3S)-5-(2,4-difluorophenyl)-2-(hydroxymethyl)-3-methyl-3,4-dihydro-2H-pyrano[2,3-b]pyridine-7-carboxamide]
10 | 10 | C[C@@H]1CCc2c(-c3ccc(F)cc3F)cc(C(N)=O)nc2O1 (single isomer, unassigned) [Example 2-6A]
11 | 20 | CC(C)[C@@H]1CCc2c(-c3ccc(F)cc3F)cc(C(N)=O)nc2O1 (single isomer, unassigned) [Example 2-4A]
12 | 8 | C[C@@]1(COC(F)F)CCc2c(-c3ccc(F)cc3F)cc(C(N)=O)nc2O1 (single isomer, unassigned) [Example 2-8A]
13 | 65 | NC(=O)c1cc(-c2ccc(Cl)cc2F)c2c(n1)[C@H]1CC[C@@H](C2)O1 (single isomer, unassigned) [Example 1-3A, (6S,9R)- or (6R,9S)-4-(4-chloro-2-fluorophenyl)-6,7,8,9-tetrahydro-5H-6,9-epoxycyclo-hepta[b]pyridine-2-carboxamide]
14 | 25 | CC1(C)COc2nc(C(N)=O)cc(-c3ccc(F)cc3F)c2C1 [Example 2-7, 5-(2,4-difluorophenyl)-3,3-dimethyl-3,4-dihydro-2H-pyrano[2,3-b]pyridine-7-carboxamide]
15 | 19 | C[C@H]1Cc2c(-c3ccc(F)cc3F)cc(C(N)=O)nc2O[C@@H]1COC(F)F (single isomer, unassigned) [Example 3-9B]
16 | 500 | NC(=O)c1cc(-c2ccc(F)cc2F)c2c(n1)[C@@H]1CC[C@H]2O1 (single isomer, unassigned) [Example 5-1B]
17 | 74 | CN(C[C@H]1CCc2c(-c3ccc(F)cc3F)cc(C(N)=O)nc2O1)CC(F)(F)F (single isomer, unassigned) [Example 4-1B]

Row | Compound | IC50 [nM]
18 | NC(=O)c1cc(-c2ccc(F)cc2F)c2c(n1)O[C@H](CO)CC2 [Example 2-1A, (S)-5-(2,4-difluorophenyl)-2-(hydroxmethyl)-3,4-dihydro-2H-pyrano[2,3-b]pyridine-7-carboxamide] | 38
19 | NC(=O)c1cc(-c2ccc(F)cc2F)c2c(n1)O[C@H](CNCC(F)(F)F)CC2 [Example 4-2A, (S)-5-(2,4-difluoropheny)-2-(((2,2,2-trifluoroethyl)amino)methyl)-3,4-dihydro-2H-pyrano[2,3-b]pyridine-7-carboxamide] | 21
20 | NC(=O)c1cc(-c2ccc(F)cc2F)c2c(n1)[C@H]1CC[C@@H](C2)O1 [Example 1-2A, (6S,9R)-4-(2,4-difluorophenyl)-6,7,89-tetrahydro-5H-6,9-epoxycyclohepta[b]pyridine-2-carboxamide] | 376
21 | C[C@H](OC(F)F)[C@@H]1CCc2c(-c3ccc(F)cc3F)cc(C(N)=O)nc2O1 (single isomer, unassigned) [Example 2-9A] | 18
